Tests used:
Type in all cases: in vivo, mouse
caspase-3 activity = experiment: Caspase-3 activity, lentiviral α-Synuclein mice
Text: To measure caspase-3 activity in the animal models, we used EnzChek® caspase-3 assay kit #1 (Invitrogen) on cortical extracts and Z-DEVD-AMC substrate and the […] was read according to manufacturer's protocol.

[1] = tested on: SN Tyrosine hydroxylase (TH) neurons; experiment: TH neuron stereology and electron microscopy of SN, lentiviral α-Synuclein mice
Procedure: Animals were deeply anesthetized with a mixture of Xylazine and Ketamine (1:8), washed with 1× saline for 1 min and then perfused with 4% paraformaldehyde (PFA) for 15-20 min. Brains were quickly dissected out and immediately stored in 4% PFA for 24 h at […], and then transferred to 30% sucrose at […] for 48 h. Tyrosine Hydroxylase (TH) was probed (1:100) with rabbit polyclonal (AB152) antibody (Millipore) and human α-Synuclein was probed (1:100) with mouse monoclonal antibodies (Thermo Scientific) and DAB counterstained.
These were applied by a blinded investigator using unbiased stereology analysis (Stereologer, Systems Planning and Analysis, Chester, Md.) to determine the total positive cell counts in 20 cortical fields on at least 10 brain sections (˜400 positive cells per animal) from each animal.
Brain tissues are fixed in (1:4, v:v) 4% PFA-picric acid solution and […] overnight, then washed 3× in 0.1 M cacodylate buffer and osmicated in 1% osmium tetroxide/1.5% potassium ferrocyanide for 3 h, followed by another 3× wash in distilled water. […] Blocks are sectioned on a Leica ultracut microtome at 95 nm, picked up onto […] formvar-coated copper grids and analyzed using a Philips Technai Spirit transmission EM. […]

[2] = tested on: lentiviral Aβ1-42-injected wild type mice; experiment: Morris water maze, lentiviral Aβ1-42 wild type mice; details: Nilotinib
Procedure: All animals were pre-trained (trials) to swim for 90 seconds in a water maze containing a platform submerged in water (invisible) for 4 consecutive days once a day. The pretraining trials “teach” the swimming animals that to “escape”, they must find the hidden platform, and stay on it. The water maze “test” was performed on day 5, (40), when the platform was removed and mice have to swim and find it, thus assessing acquisition and retention. All parameters, including distance travelled to reach platform, speed to get to the platform, latency or time spent on platform, and platform entry were digitally recorded on a computer and analyzed by a blind investigator.
The Morris water maze test was performed after 4 days of training trials in which the platform was placed in the SE corner and mice were initially placed in the NW corner of the pool.

SMILES: Cc1cn(-c2cc(NC(=O)c3ccc(C)c(Nc4nccc(-c5cccnc5)n4)c3)cc(C(F)(F)F)c2)cn1 [Nilotinib]
- caspase-3 activity, Nilotinib vs DMSO (caspase-3 activity; LacZ injected mice, daily IP 10 mg/kg): did not result in any difference
- caspase-3 activity (caspase-3 activity; lentiviral α-Synuclein mice, daily IP 10 mg/kg Nilotinib 3 weeks): 140 % of LacZ levels
- TH+ neurons (by stereology) ([1]; lentiviral α-Synuclein mice + Nilotinib): 82 % of LacZ level
- autophagic vacuoles in SN neurons (transmission electron microscopy) ([1]; lentiviral α-Synuclein mice, Nilotinib treatment): appearance of larger AVs
- time spent in NW quadrant ([2]; Aβ1-42-injected wild type mice): back to the level observed in control mice
- improved time spent in SE compared to DMSO ([2]; Aβ1-42 wild type mice): 61%
- improved time spent in SE compared to control ([2]; Aβ1-42 wild type mice): 26%
- number of entries into SE (platform entry) ([2]; Aβ1-42 wild type mice): reversed the number of entries back to control
